According to publication PMC5831360 (Nature chemical biology, 2017):
Where “and” joins values, the source holds several entries; their conditions need not be identical. Identical values can stand only once. Each block holds one molecule with its values, some of them ahead of it.

Experiments:
Tudor domains of 53BP1 [1] = target: T1, Tudor domains of 53BP1 (Homo sapiens, UniProt Q12888); assay: Isothermal titration calorimetry; format: binding; conditions: Kd for 53BP1, ITC counter screen
Tudor domains of PHF20 [2] = target: Tudor domains of PHF20 (Homo sapiens, UniProt Q9BVI0); assay: Isothermal titration calorimetry; format: binding; conditions: Kd for PHF20, ITC counter screen
Target sequence in this assay (Q9BVI0 83-147 limits assumed): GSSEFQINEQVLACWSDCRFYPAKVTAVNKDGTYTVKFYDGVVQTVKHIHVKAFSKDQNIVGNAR

MBT domains of L3MBTL1 = MBT domains of L3MBTL1 (Homo sapiens, UniProt Q9Y468); assay: Isothermal titration calorimetry; format: binding; conditions: Kd for L3MBTL1, ITC counter screen
MBT domains of L3MBTL1, sequence (Q9Y468 274-585 limits assumed): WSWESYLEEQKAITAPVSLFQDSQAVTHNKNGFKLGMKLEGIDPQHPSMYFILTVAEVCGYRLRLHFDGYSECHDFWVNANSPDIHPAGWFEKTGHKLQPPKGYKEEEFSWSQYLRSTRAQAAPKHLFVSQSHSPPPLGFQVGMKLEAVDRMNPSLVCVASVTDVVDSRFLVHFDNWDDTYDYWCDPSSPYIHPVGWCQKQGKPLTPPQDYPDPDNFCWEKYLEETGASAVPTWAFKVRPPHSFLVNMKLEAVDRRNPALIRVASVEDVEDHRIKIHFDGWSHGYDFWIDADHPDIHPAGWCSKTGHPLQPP

MBT domains of L3MBTL3 = MBT domains of L3MBTL3 (Homo sapiens, UniProt Q96JM7); assay: Isothermal titration calorimetry; format: binding; conditions: Kd for L3MBTL3, ITC counter screen
MBT domains of L3MBTL3, sequence (Q96JM7 232-543 limits assumed): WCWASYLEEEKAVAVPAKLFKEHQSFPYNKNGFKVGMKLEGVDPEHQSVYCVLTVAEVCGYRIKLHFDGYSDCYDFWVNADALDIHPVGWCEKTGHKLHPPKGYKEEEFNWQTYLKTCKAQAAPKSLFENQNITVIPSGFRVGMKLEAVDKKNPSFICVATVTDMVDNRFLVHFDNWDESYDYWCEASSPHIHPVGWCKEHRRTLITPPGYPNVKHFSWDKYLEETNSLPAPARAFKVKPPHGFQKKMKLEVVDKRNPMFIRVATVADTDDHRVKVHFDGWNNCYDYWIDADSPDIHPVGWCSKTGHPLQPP

SPIN2a/b = assay: Chemiprecipitation of SPIN family members with tagged compound; format: binding
SPIN4 = SPIN4 (Homo sapiens, UniProt Q56A73); assay: as above; format: binding
SPIN4, sequence (Q56A73 whole entry): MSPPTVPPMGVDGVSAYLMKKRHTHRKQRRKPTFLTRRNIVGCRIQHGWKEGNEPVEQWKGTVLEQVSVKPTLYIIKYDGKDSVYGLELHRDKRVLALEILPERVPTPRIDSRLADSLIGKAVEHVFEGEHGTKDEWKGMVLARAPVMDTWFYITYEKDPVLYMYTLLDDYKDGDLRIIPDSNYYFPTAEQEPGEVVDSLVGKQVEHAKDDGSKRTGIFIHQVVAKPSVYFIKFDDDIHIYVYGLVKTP

T778 liposarcoma cells = assay: RNA-seq of compound-treated versus SPIN1 knockdown cells; format: cell-based, human; conditions: 10 μM, 3 days
[3] = test system: SPIN1 target genes (rRNA, IL1B, BST2, C1QTNF1, ALDH1A3, IFI44L) in T778 cells; assay: RT-qPCR of SPIN1-regulated genes after compound treatment; format: cell-based, human; conditions: 4 days
[4] = test system: GFP-SPIN1 recruitment to promoter regions of rDNA and IL1B in T778 cells; assay: α-GFP ChIP-qPCR of SPIN1 chromatin association; format: cell-based, human; conditions: 10 μM, overnight
[5] = test system: SPIN1 target genes in GFP-SPIN1 transfected T778 cells; assay: RT-qPCR of SPIN1 target genes after GFP-SPIN1 overexpression; format: cell-based, human; conditions: 10 μM, 24 h after GFP-SPIN1 transfection
[6] = target: SPIN1-H3K4me3 interaction (Homo sapiens, UniProt Q9Y657); assay: Competition pulldown, bead-bound H3K4me3 peptide and GST-SPIN1; format: binding; conditions: untagged compound, increasing concentrations
SPIN1-H3K4me3 interaction, sequence (Q9Y657 50-262): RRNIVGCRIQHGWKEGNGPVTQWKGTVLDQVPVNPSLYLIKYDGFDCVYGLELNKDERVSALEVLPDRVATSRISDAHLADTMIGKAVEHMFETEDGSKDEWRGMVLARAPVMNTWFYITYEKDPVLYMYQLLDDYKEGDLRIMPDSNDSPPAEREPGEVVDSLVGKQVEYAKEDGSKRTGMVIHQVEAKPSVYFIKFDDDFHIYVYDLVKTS

GFP-53BP1 = GFP-53BP1 (Homo sapiens, UniProt Q12888); format: binding; conditions: HEK293T whole cell lysate, bead-immobilized biotinylated compound
GFP-53BP1, sequence (Q12888 1144-1709): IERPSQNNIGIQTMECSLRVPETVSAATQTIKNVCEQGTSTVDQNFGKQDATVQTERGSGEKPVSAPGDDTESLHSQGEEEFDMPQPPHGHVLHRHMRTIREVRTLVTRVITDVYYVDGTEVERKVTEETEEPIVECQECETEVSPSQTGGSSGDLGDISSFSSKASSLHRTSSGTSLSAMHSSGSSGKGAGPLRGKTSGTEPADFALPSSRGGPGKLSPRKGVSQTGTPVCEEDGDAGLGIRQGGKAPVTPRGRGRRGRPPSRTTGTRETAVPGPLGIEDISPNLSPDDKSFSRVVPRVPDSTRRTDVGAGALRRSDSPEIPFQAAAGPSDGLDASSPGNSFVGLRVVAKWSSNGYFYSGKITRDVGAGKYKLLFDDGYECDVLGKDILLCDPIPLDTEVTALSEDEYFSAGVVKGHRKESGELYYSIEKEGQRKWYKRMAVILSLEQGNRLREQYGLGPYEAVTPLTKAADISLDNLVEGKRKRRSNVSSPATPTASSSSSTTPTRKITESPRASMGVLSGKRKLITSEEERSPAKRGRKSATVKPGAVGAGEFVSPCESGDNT

[7] = target: GFP-SPIN1 in transfected HeLa cells (Homo sapiens, UniProt Q9Y657); assay: Cellular thermal shift assay; format: cell-based; conditions: 20 μM, overnight
GFP-SPIN1 in transfected HeLa cells, sequence (Q9Y657 whole entry, the tested form may be a part): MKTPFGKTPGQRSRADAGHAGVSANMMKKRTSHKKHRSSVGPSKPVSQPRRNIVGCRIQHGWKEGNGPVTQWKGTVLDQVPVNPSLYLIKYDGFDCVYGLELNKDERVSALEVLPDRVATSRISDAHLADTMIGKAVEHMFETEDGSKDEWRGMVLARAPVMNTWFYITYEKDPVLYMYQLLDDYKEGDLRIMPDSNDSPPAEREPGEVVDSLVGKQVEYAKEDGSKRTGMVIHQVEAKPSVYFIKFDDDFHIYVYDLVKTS

[8] = target: Spindlin1 (SPIN1), three Tudor domains (Homo sapiens, UniProt Q9Y657); assay: Protein domain microarray probing with biotin-tagged compounds; format: binding; conditions: biotinylated compound, 1 μM, Cy3-streptavidin
Spindlin1 (SPIN1), three Tudor domains, sequence (Q9Y657 whole entry, the tested form may be a part): as above

Tudor domains of PHF20 [9] = target: Tudor domains of PHF20 (Homo sapiens, UniProt Q9BVI0); assay: as above; format: binding; conditions: biotinylated compound, 1 μM, Cy3-streptavidin
Target sequence in this assay (Q9BVI0 4-147): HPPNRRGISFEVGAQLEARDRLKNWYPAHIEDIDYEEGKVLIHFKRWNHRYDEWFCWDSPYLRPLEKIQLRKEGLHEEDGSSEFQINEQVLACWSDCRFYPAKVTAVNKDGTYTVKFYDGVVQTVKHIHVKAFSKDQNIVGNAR

PHF20L1 = assay: as above; format: binding, human; conditions: biotinylated compound, 1 μM, Cy3-streptavidin
Tudor domains of 53BP1 [10] = target: T1, Tudor domains of 53BP1; assay: as above; format: binding; conditions: biotinylated compound, 1 μM, Cy3-streptavidin
subset of MBT domains = assay: as above; format: binding, human; conditions: biotinylated compound, 1 μM, Cy3-streptavidin
[11] = target: yeast Tudor domain (SPF30^sp) (Schizosaccharomyces pombe, UniProt O94519); assay: as above; format: binding; conditions: biotinylated compound, 1 μM, Cy3-streptavidin
yeast Tudor domain (SPF30^sp), sequence (O94519 76-139 limits assumed): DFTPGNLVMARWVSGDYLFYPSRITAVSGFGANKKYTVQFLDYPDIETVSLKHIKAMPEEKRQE

SPIN1 (SPIN1_50–262) = SPIN1 (SPIN1_50–262) (Homo sapiens, UniProt Q9Y657); assay: Isothermal titration calorimetry; format: binding; conditions: read-out: dissociation constant (Kd) with SPIN1; ITC, 25 °C, pH 7.5
SPIN1 (SPIN1_50–262), sequence (Q9Y657 50-262): as the sequence (Q9Y657 50-262) above

recombinant SPIN1 = recombinant SPIN1 (Homo sapiens, UniProt Q9Y657); assay: In vitro thermal shift assay; format: binding; conditions: 100 μM compound, 1 mg/mL SPIN1, Sypro Orange
recombinant SPIN1, sequence (Q9Y657 50-262): as above

SPIN1-TCF4 interaction = SPIN1-TCF4 interaction (Homo sapiens, UniProt Q9Y657); assay: SPIN1-TCF4 interaction assay; format: binding
SPIN1-TCF4 interaction, sequence (Q9Y657 whole entry): as the sequence (Q9Y657 whole entry, the tested form may be a part) above

GFP-SPIN1(FL) = GFP-SPIN1(FL) (Homo sapiens, UniProt Q9Y657); format: binding; conditions: HEK293 whole cell lysate, bead-immobilized biotinylated compound
GFP-SPIN1(FL), sequence (Q9Y657 whole entry): as the sequence (Q9Y657 whole entry, the tested form may be a part) above

[12] = test system: Spindlin1-H3K4me3 interaction; conditions: read-out: IC50, in vitro inhibition of Spindlin1-H3K4me3 interaction; AlphaLISA; cited from earlier work
SPIN1 = conditions: cited from earlier work

T1 sequence (Q12888 1484-1603 limits assumed): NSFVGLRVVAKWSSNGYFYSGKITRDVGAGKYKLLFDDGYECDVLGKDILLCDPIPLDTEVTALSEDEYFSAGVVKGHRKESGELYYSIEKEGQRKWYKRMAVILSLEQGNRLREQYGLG

SMILES: O=C(c1ccc(C(=O)N2CCC(CCN3CCCC3)CC2)c(Nc2ccc(OCN3CCCC3)cc2)c1)N1CCC(CCN2CCCC2)CC1 [EML631]
Kd (Tudor domains of 53BP1 [1]): < 100 µM and > 100 µM
Kd (Tudor domains of PHF20 [2]): < 100 µM and > 100 µM
Kd (MBT domains of L3MBTL1): < 100 µM and > 100 µM
Kd (MBT domains of L3MBTL3): < 100 µM and > 100 µM
pulldown of SPIN2a/b by tagged compound (SPIN2a/b): reduced pulldown
interaction of tagged compound with SPIN4 (SPIN4): no interaction
transcripts down regulated in both SPIN1 knockdown and compound-treated cells (T778 liposarcoma cells): 655
expression levels of six SPIN1-regulated candidate genes ([3]; 10 μM): decrease in the expression levels of all six candidate genes
GFP-SPIN1 recruitment to promoter regions of rDNA and IL1B [4]: recruitment was blocked
SPIN1-overexpression-elevated expression of target genes [5]: dramatically attenuated

inhibition of H3K4me3 peptide - GST-SPIN1 interaction [6]: not active
interaction of tagged compound with GFP-53BP1 (GFP-53BP1): able to interact with GFP-53BP1
stabilization of GFP-SPIN1 at high temperatures (CETSA) [7]: not with UNC1215
SMILES: O=C(c1ccc(C(=O)N2CCC(N3CCCC3)CC2)c(Nc2ccccc2)c1)N1CCC(N2CCCC2)CC1 [UNC1215, reference compound]

binding to Spindlin1 on protein domain microarray [8]: bound strongly
binding to Tudor domains of PHF20 on protein domain microarray (Tudor domains of PHF20 [9]): bound strongly
binding to PHF20L1 on protein domain microarray (PHF20L1): bound strongly
binding to Tudor domains of 53BP1 on protein domain microarray (Tudor domains of 53BP1 [10]): bound strongly
binding to a subset of MBT domains on protein domain microarray (subset of MBT domains): bound strongly
binding to yeast Tudor domain SPF30^sp on protein domain microarray [11]: bound strongly
Kd (SPIN1 (SPIN1_50–262)): 15 µM
increase of melting temperature of SPIN1 (recombinant SPIN1): 5 °C
block of SPIN1-TCF4 interaction (SPIN1-TCF4 interaction): blocked this interaction
pulldown of GFP-SPIN1 by tagged compound (GFP-SPIN1(FL)): detected the pulldown of GFP-SPIN1
stabilization of GFP-SPIN1 at high temperatures (CETSA) [7]: stabilization
SMILES: O=C(c1ccc(C(=O)N2CCC(CCN3CCCC3)CC2)c(Nc2ccccc2)c1)N1CCC(CCN2CCCC2)CC1 [EML405]
inhibition of H3K4me3 peptide - GST-SPIN1 interaction [6]: higher concentrations of EML405 than EML631–633 were needed to inhibit the interaction
expression levels of six SPIN1-regulated candidate genes ([3]; 20 μM): decrease in the expression levels of all six candidate genes
SPIN1-overexpression-elevated expression of target genes [5]: dramatically attenuated

SMILES: COc1cc2c(cc1OCCCN1CCCC1)N=C(N)C21CCC1 [A366]
IC50 [12]: ~0.2 µM
cell-based activity (SPIN1): 100 µM
